Reference: patent US11198705B2, “Hybrid Amphotericin B derivatives with reduced toxicity” (priority 2018, dated 2021)
≈ marks a conversion by molar mass, not a printed value. Read-outs that look alike come from different tables or passages of the source.

Tests used:
[1] = system: candidiasis; experiment: Candidiasis mouse model, intravenous administration (EvoTec, FIG. 13); format: in vivo, mice
Method: (§1) To enable a head-to-head comparison with the AmB urea derivatives, AmB was delivered as a non-deoxycholate complex. […] These AmBUreas were also tested via intravenous administration in a similar model at EvoTec (Oxfordshire, UK), and their activities were compared directly with IV AmB-deoxycholate (Fungizone®) and liposomal AmB (AmBisome®) (FIG. 13).

[2] = PK/PD properties in mice, rats and dogs (FIG. 14); format: in vivo; settings: rats, dogs
[3] = system: human red blood cells; format: cell-based
[4] = format: binding; settings: for binding to ergosterol: UV-Vis/PCA sponge-sterol titration
From the text: (§2) However, an alternative method was developed for reproducible formation of homogenous AmB and C2′epiAmB sterol sponge aggregates in vitro. Using these preparations, a quantitative UV-Vis and Principle Component (PCA) based assay for determining the apparent KDS for the binding of AmB and C2′epiAmB to ergosterol and cholesterol (FIGS. 5A-D) was developed.
(§3) Biophysical studies support the conclusion that different capacities to bind cholesterol underlie these striking differences in toxicity for the AmBUreas versus C2′epiAmB (FIG. 15). Isothermal titration calorimetry is unable to distinguish between cholesterol binding in these two series. However, a more sensitive and quantitative UV-Vis/PCA based sponge-sterol titration experiments described above (see Example 1) was employed to quantify the binding of a representative AmB urea (AmBAU) to ergosterol and cholesterol. […] It was reasoned that the lack of cholesterol binding in C2′epiAmB to a ligand-selective allosteric effect was caused by epimerization of the C2′stereocenter (see Example 1), and thus predict that the biophysical effects associated with C2′-epimerization should be transposable to other AmB derivatives.

[5] = system: Scedosporium prolificans; experiment: In vitro antifungal activity against Scedosporium prolificans; format: cell-based; settings: recalcitrant strain
From the text: (§4) Steinbach and Burke recently collaborated to further compare the activity of a series of AmBUreas (AmBAU, AmBMU, and AmBCU) with AmBisome®, C2′epiAmB, caspofungin, and voriconazole against a wide range of clinically relevant pathogens, including AmB-resistant Scedosporium strains (FIG. 11C).

[6] = UV-Vis/PCA sterol sponge titration, cholesterol; format: binding
From the text: as §2, §3

[7] = system: primary human renal epithelial cells (hREC)
From the text: As a complementary parallel first step in the screening funnel, the MTC's of all new derivatives will be evaluated against hREC using a WST-8 cell proliferation assay kit as previously described above. The MTC will be determined by calculating the mean of at least two biological replicates.

[8] = system: four strains of clinically relevant Candida species and four challenging strains of A. fumigatus; experiment: In vitro antifungal activity, four Candida strains and four A. fumigatus strains (FIG. 11D); format: cell-based; settings: Aspergillus fumigatus, read-out: Mean MIC
From the text: (§5) Both AmBAU and AmBTACBU was further tested and compared to AmB against four strains of clinically relevant Candida species and four challenging strains of A. fumigatus (FIG. 11D).

[9] = system: wide range of clinically relevant pathogens; experiment: In vitro antifungal activity, wide range of clinically relevant pathogens (FIG. 11C); format: cell-based; settings: across a wide range of pathogens
From the text: as §4

[10] = IV toxicity in mice (mortality); format: in vivo
[11] = system: invasive candidiasis; experiment: Murine model of invasive candidiasis, intraperitoneal AmBUreas (FIG. 12); format: in vivo, mice
Method: as §1

[12] = IV toxicity in rats (BUN, ALT/AST, mortality)
[13] = system: clinically relevant invasive molds; experiment: In vitro antifungal activity, panel of clinically relevant invasive molds (FIG. 8C); format: cell-based; settings: many strains, including pan-azole resistant strain F14196
[14] = system: Candida and Aspergillus clinical isolates; experiment: In vitro antifungal activity, Candida and Aspergillus clinical isolates (Evotec); format: cell-based; settings: many Candida and several Aspergillus strains
[15] = Isothermal titration calorimetry (ITC) sterol binding, ergosterol; settings: within detection limits of ITC
From the text: (§6) This key discovery opened a path to the rational development of a non-toxic AmB variant. To probe its predicted role in sterol binding, the hydroxyl group was synthetically deleted at the C2′ position on the mycosamine appendage. […] Consistent with the sterol sponge model, this derivative retained good activity against yeast but, most importantly, was nontoxic to human red blood cells and primary (hREC) (FIG. 2B).
(§7) A practical 11-step synthesis of C2′epiAmB using a frontier site-selective acylation method was developed (FIG. 4). Wilcock, B. C. et al., Nat Chem 2012, 4 (12), 996-1003; Uno, B. E. A synthesis enabled understanding of Amphotericin B leading to derivatives with improved therapeutic indices. University of Illinois at Urbana-Champaign, 2014. The sterol binding and cell killing activities was then determined.

[16] = system: series of important pathogens (Candida and Aspergillus strains); experiment: In vitro antifungal activity of C2′epiAmBAU hybrid vs AmB, C2′epiAmB and AmBAU (FIG. 18); format: cell-based; settings: A. fumigatus 91, A. fumigatus 1163, and A. fumigatus 1100
From the text: In a key result, synthesis on small scale was accomplished on the first targeted hybrid derivative, C2′epiAmBAU, as per FIG. 17 confirming the feasibility of the route to these natural product analogs. The initial biological analysis of this first C2′epiAmBUrea derivative was very encouraging since a substantial increase in antifungal potency for C2′epiAmBAU relative to C2′epiAmB was observed (FIG. 18).

[17] = system: 40 Aspergillus clinical isolates, including azole-resistant A. fumigatus, A. flavus, and A. terreus; experiment: Antifungal testing, extended panel of 40 Aspergillus clinical isolates (Fungus Testing Laboratory, UT-San Antonio); format: cell-based
[18] = system: A. fumigatus 91, A. fumigatus 1100; experiment: MIC against A. fumigatus 91 and A. fumigatus 1100; format: cell-based
From the text: The results with C2′epiAmBAU strongly support the prediction that C16 modifications will show improved potency compared to C2′epiAmB. […] Thus, it is expected that hybridizations of C2′epiAmB with other urea side chains will yield similar increases in potency without any mammalian toxicity. If this proves not to be the case, other classes of C16 modifications that also increase potency will be pursed. […] Alternative modifications may be pursed at the mycosamine appendage that the modelling predicts should similarly eliminate the water-bridged C2′OH to C13OH hydrogen bond, e.g., C2′deoxygenation, C2′-halodeoxygenation, or C2′-methyldeoxygenation, and thus eliminate cholesterol binding (see FIGS. 3A and 3B). This study anticipates high doses of non-toxic C2′epiAmBUreas will yield a significant reduction in fungal burden and therefore an increase in survival in QD dosing efficacy studies relative to AmB-deoxycholate (Fungizone®), AmBisome®, C2′epiAmB, voriconazole, and caspofungin.

[19] = system: A. fumigatus; experiment: In vitro antifungal activity, A. fumigatus strains (Evotec); format: cell-based
[20] = system: C. albicans; experiment: Murine model of invasive candidiasis, single IP injection (FIG. 10); format: in vivo, neutropenic ICR/Swiss mice
From the text: Andes, D. et al., Antimicrobial agents and chemotherapy 2001, 45 (3), 922-6. […] Wiederhold, N. P. et al., Antimicrobial agents and chemotherapy 2006, 50 (2), 469-73.

[21] = Isothermal titration calorimetry (ITC) sterol binding, cholesterol; settings: within detection limits of ITC
From the text: as §6, §7

[22] = system: C. albicans; experiment: MIC against C. albicans with and without pre-complexation with ergosterol; format: cell-based; settings: sponge pre-complexed with ergosterol
From the text: Anderson, T. M. et al., Nat Chem Biol 2014, 10 (5), 400-6. […] Davis, S. A., et al., Nat Chem Biol 2015, 11 (7), 481-7. To test whether C2′epiAmB primarily kills cells via the same sterol sponge mechanism, the C2′epiAmB sponge was similarly pre-complexed with ergosterol (FIG. 9). […] Thus, C2′epiAmB similarly kills yeast primarily via sterol binding, and, by extension, the new compounds targeted in this application are expected to have a similar barrier to fungal resistance that has been observed for the past 50+ years with AmB.

[23] = system: yeast; experiment: Activity against yeast / cell killing (FIG. 2); format: cell-based
From the text: as §6, §7

[24] = system: panel of clinical isolates; experiment: In vitro antifungal activity, panel of clinical isolates (FIG. 11B); format: cell-based; settings: read-out: Mean MIC
From the text: Burke, Andes, and Lindquist reported in 2015 a series of AmB derivatives in which the C16 acid is replaced with a urea motif via a scalable 3-step synthesis from AmB (FIG. 11A). Davis, S. A., et al., Nat Chem Biol 2015, 11 (7), 481-7. AmBUreas were studied at REVOLUTION Medicines, a biotech company for which Burke is a Founder and Consultant and Steinbach served on the Clinical Advisory Board.
as §5

Structure (SMILES): C[C@@H]1[C@H](O)[C@@H](C)/C=C/C=C/C=C/C=C/C=C/C=C/C=C/C(OC2O[C@H](C)[C@@H](O)[C@H](N)[C@@H]2O)C[C@@H]2O[C@](O)(C[C@@H](O)C[C@@H](O)[C@H](O)CC[C@@H](O)C[C@@H](O)CC(=O)O[C@H]1C)C[C@H](O)[C@H]2NC(=O)NCCN (stereo partly drawn) [AmBAU]
- kidney fungal burden ([1]; 1 mg/kg, within the limits of assay detection): sterilization in multiple mice
- kidney fungal burden ([1]; 16 mg/kg): complete sterilization
- PK/PD properties [2]: favorable PK/PD properties
- concentration failing to fully lyse red blood cells ([3]; highest concentrations tested): > 500 µM
- binding to ergosterol [4]: confirmed to bind
- activity against Scedosporium prolificans [5]: active
- binding to cholesterol [6]: confirmed to bind
- minimum toxic concentration (MTC) against primary hRECs [7]: 11.3 µM
- MIC ([8]; FIG. 11D, four Candida and four A. fumigatus strains): 0.5 µM (≈ 0.491 µg/mL)
- antifungal potency [9]: excellent potency
- dose at which death was observed ([10]; IV, mice): 32 mg/kg
- efficacy ([11]; administered intraperitoneally): exceptionally effective
- toxicity in rats ([12]; 6 mg/kg): significant toxicity

Structure (SMILES): C[C@@H]1[C@H](O)[C@@H](C)/C=C/C=C/C=C/C=C/C=C/C=C/C=C/[C@H](O[C@@H]2O[C@H](C)[C@@H](O)[C@H](N)[C@H]2O)C[C@@H]2O[C@](O)(C[C@@H](O)C[C@@H](O)[C@H](O)CC[C@@H](O)C[C@@H](O)CC(=O)O[C@H]1C)C[C@H](O)[C@H]2C(=O)O [C2′epiAmB]
- antifungal potency [13]: good antifungal potency
- in vitro antifungal activity [14]: good activity
- binding of ergosterol by ITC [15]: bind ergosterol
- resistance of strains to compound [16]: complete or nearly complete resistance
- average potency relative to AmB (less potent) ([17]; average across all 40 strains): 5.6 fold
- potency relative to AmB (less potent) ([17]; range over 40 Aspergillus clinical isolates): 2-16 times
- toxicity to human red blood cells [3]: non-toxic
- MIC ([18]; A. fumigatus 91): > 64 µM
- MIC ([18]; A. fumigatus 1100): 32 µM (≈ 29.6 µg/mL)
- binding to ergosterol [4]: retained binding
- binding to cholesterol [6]: no detectable binding
- potency relative to AmB (less potent) ([19]; A. fumigatus AF91): > 32 times
- potency relative to AmB (less potent) ([19]; A. fumigatus AF293, A1163, and ATC204305): 4 fold
- fungal burden ([20]; 16 mg/kg): outstanding reductions in fungal burden
- efficacy ([20]; deoxycholate complex, 1, 4, 8, or 16 mg/kg): dose-dependent efficacy
- minimum toxic concentration (MTC) against primary hRECs [7]: > 80 µM
- toxicity to primary hREC [7]: non-toxic
- binding of cholesterol by ITC [21]: not (detectably) cholesterol
- change in potency upon ergosterol pre-complexation [22]: same reduction in potency
- mortality ([10]; IV, mice, 128 mg/kg (highest dose tested)): survived
- toxicity to mice ([10]; up to the highest dose tested): non-toxic
- cell killing activities ([23]; fungal vs human cells): kill fungal but not human cells
- toxicity in rats ([12]; 17.5 mg/kg (highest tested dose)): no such toxicity
- toxicity to rats ([12]; up to the highest dose tested): non-toxic

Structure (SMILES): CC1C=CC=CC=CC=CC=CC=CC=CC(OC2CC(N)C(O)C(C)O2)CC2OC(O)(CC(O)CC(O)C(O)CCC(O)CC(O)CC(=O)OC(C)C(C)C1O)CC(O)C2C(=O)O (stereo not drawn) [C2′deOAmB, reference compound]
- binding of ergosterol by ITC [15]: bind ergosterol
- toxicity to human red blood cells [3]: nontoxic
- toxicity to primary hREC [7]: nontoxic
- binding of cholesterol by ITC [21]: not cholesterol
- activity against yeast [23]: good activity

Structure (SMILES): C[C@@H]1[C@H](O)[C@@H](C)/C=C/C=C/C=C/C=C/C=C/C=C/C=C/[C@H](O[C@@H]2O[C@H](C)[C@@H](O)[C@H](N)[C@@H]2O)C[C@@H]2O[C@](O)(C[C@@H](O)C[C@@H](O)[C@H](O)CC[C@@H](O)C[C@@H](O)CC(=O)O[C@H]1C)C[C@H](O)[C@H]2C(=O)O [AmB, Amphotericin B]
- MIC [24]: 1.23 µM (≈ 1.14 µg/mL)
- Kd [4]: 120 nM
- minimum toxic concentration (MTC) against primary hRECs ([7]; human): 2.4 µM
- minimum toxic concentration (MTC) in hREC, preliminary analysis ([7]; human): 2 to 4 µM
- MIC [8]: 1.33 µM (≈ 1.23 µg/mL)
- change in potency upon ergosterol pre-complexation [22]: same reduction in potency
- dose-response ([11]; AmB delivered as a non-deoxycholate complex): atypical lack of dose-response

Structure (SMILES): CNC(=O)N[C@H]1[C@@H]2CC(OC3O[C@H](C)[C@@H](O)[C@H](N)[C@@H]3O)/C=C/C=C/C=C/C=C/C=C/C=C/C=C/[C@H](C)[C@@H](O)[C@@H](C)[C@H](C)OC(=O)C[C@H](O)C[C@H](O)CC[C@@H](O)[C@H](O)C[C@H](O)C[C@](O)(C[C@@H]1O)O2 (stereo partly drawn) [AmBMU]
- binding to cholesterol [6]: retains the capacity to bind cholesterol
- minimum toxic concentration (MTC) against primary hRECs ([7]; human): 44.4 µM
- toxicity in rats ([12]; 6 mg/kg): significant toxicity

Structure (SMILES): COC(=O)C1C(O)CC2(O)CC(O)CC(O)C(O)CCC(O)CC(O)CC(=O)OC(C)C(C)C(O)C(C)C=CC=CC=CC=CC=CC=CC=CC(OC3OC(C)C(O)C(N)C3O)CC1O2 (stereo not drawn) [C2′epiAmBME, C2′epiAmB C16 methyl ester]
- MIC ([18]; A. fumigatus 91): 4 µM (≈ 3.75 µg/mL)
- MIC ([18]; A. fumigatus 1100): 4 µM (≈ 3.75 µg/mL)
